Assay results from PMC11310889, “Ribosomal translation of fluorinated non-canonical amino acids for de novo biologically active fluorinated macrocyclic peptides” (Chemical Science, 2024).

Columns and labels:
E. coli W3110 [1] = test: Propidium iodide (PI) assay of membrane permeability; assay type: cell-based, Escherichia coli; conditions: E. coli W3110 logarithmic-phase, 15 min treatment with 5 μM peptide, PI 25 μg/mL 15 min (Fig. 5A)
Protocol: Propidium Iodide (PI) assay
Thaw the previously preserved E. coli W3110 cells from the -80 °C freezer. Scrape a small amount and inoculate it into 1 mL of LB liquid medium. Culture overnight in a 37°C shaker. Next day, inoculate the strain into fresh LB liquid medium at a 1:100 ratio and incubate at 37 °C until the OD600 reaches approximately 0.47 to 0.53. Take 100 μL of the E. coli W3110 cells and centrifuge for 2 min at 13,000 rpm. Discard the supernatant. For the untreated group, resuspend the cells in 100 μL of PBS. For the peptide treatment group, resuspend the cells in 99 μL of ddH2O and add 1 […]
μL of 0.5 mM of the different peptides. Mix thoroughly and let react for 15 min. After the treatment, take 80 μL of each sample and incubate with PI at a final concentration of 25 μg/mL for 15 min.
After incubation, wash the samples with the same amount of PBS, centrifuge, and resuspend at a 10-fold concentration. Observe the images using a Nikon Eclipse Ci-L Plus microscope. […]
Incubate overnight in a 37°C shaker. […]
Centrifuge again at
6100g for 10 min, discard the supernatant, and add 500 μL of ddH2O containing 2.5% glutaraldehyde. Resuspend and fix the cells overnight at 4°C. Centrifuge at 6100g for 10 min, remove the supernatant, and wash twice with ddH2O, letting it stand for 15 min each time, followed by centrifugation at 6100g for 10 min. Discard the supernatant. Dehydrate the sample with ethanol at concentration gradients of 30%, 60%, and 90%, without resuspension, centrifuging at 6100g for […]

E. coli W3110 [2] = test: Scanning electron microscopy of cell morphology; assay type: cell-based, Escherichia coli; conditions: E. coli W3110 logarithmic-phase, 4 h treatment at 2 μM and 5 μM (Fig. 5B, S11)
Protocol: Thaw the previously preserved E. coli W3110 cells from the -80 °C freezer. […]
Scanning electron microscopy
Thaw the previously preserved E. coli W3110 cells from the -80°C freezer. Scrape a small amount and inoculate it into 1 mL of LB liquid medium. Incubate overnight in a 37°C shaker. The next day, inoculate the strain into fresh LB liquid medium at a 1:100 ratio and incubate at 37°C until the OD600 reaches approximately 0.47 to 0.53. Take 500 μL of E. coli W3110 cells, centrifuge for 10 min at 4000 rpm, and discard the supernatant. Resuspend the cells in 500 μL of PBS, then centrifuge again at 4000 rpm for 10 min and discard the supernatant. Dissolve various macrocyclic peptides in DMSO and dilute to the required concentration. Resuspend the untreated group in 500 μL of PBS.
For the peptide treatment group, resuspend in 495 μL of ddH2O, add 5 μL of 0.2 mM or 0.5 mM peptides, mix well, and let react for 4 h.
After the treament, spot 4 μL of the sample on plates. Perform the first ten-fold dilution and mix, then continue with the second to fifth ten-fold dilutions. Incubate the plates inverted overnight in a 37°C incubator. Scan and count the colonies. For the remaining 492 μL, centrifuge at 6100g for 10 min, discard the supernatant, add 500 μL of ddH2O, and let it stand for 15 min. Centrifuge again at 6100g for 10 min, discard the supernatant, and add 500 μL of ddH2O containing 2.5% glutaraldehyde. Resuspend and fix the cells overnight at 4°C. Centrifuge at 6100g for 10 min, remove the supernatant, and wash twice with ddH2O, letting it stand for 15 min each time, followed by centrifugation at 6100g for 10 min. Discard the supernatant. Dehydrate the sample with ethanol at concentration gradients of 30%, 60%, and 90%, without resuspension, centrifuging at 6100g for […]
10 min and discarding the supernatant after each step. Finally, use 100% ethanol, rest for 15 min, centrifuge at 6100g for 10 min, discard the supernatant, and repeat with 100% ethanol, leaving about 10 μL. Then the critical point was dried and sprayed with gold, and the images were observed by […]
Prediction of binding sites between peptides and the BAM complex
Firstly, the fpocket algorithm was used, a rapid method for pocket prediction based on the three-dimensional structure of BAM complex (PDB ID: 5AYW). This method establishes a grid surrounding the protein, positioning alpha spheres on grid points devoid of spatial conflicts with protein atoms, subsequently utilizing a clustering algorithm to ascertain whether these regions constitute potential binding pockets. Alpha spheres were designated with radii ranging from 3.4Å to 6.2Å, with a prerequisite of at least 15 alpha spheres for a region to be considered a pocket. […]
PepNN evaluated each amino acid for its potentiality as a peptide binding site. […]

Gram-negative bacteria = conditions: cited from earlier work
From the text: Furthermore, conjugating the R9 peptide to antimicrobial peptides enhances antibacterial activity, particularly increasing effectiveness against Gram-negative bacteria.[49–51] ...

nona-arginine [R9, reference compound]
PI red fluorescence (cell membrane permeability) (E. coli W3110 [1]): weak red fluorescence
morphological changes by scanning electron microscopy (E. coli W3110 [2]): slight shrinkage and partial rupture
anti-Gram-negative bacterial activity (Gram-negative bacteria): low anti-Gram-negative bacterial activity
